Data reported in patent US20180125993A1 (BEIJING COTIMES BIOTECH COMPANY LIMITED, priority 2014, published 2018).
Marks after values point to notes of the source that are not given here.

Key:
[1] = test system: WI-38, HFL-1, HUV-EC-C, human hepatic differentiated cells; assay: Cytotoxicity of HuCTB006 on human normal tissue cell lines; assay type: cell-based; details: 24 hours after the treatments
From the text: Several human normal tissue cell lines, including human lung epithelial fibroblasts WI-38, human embryonic lung fibroblasts HFL-1, human umbilical vein epithelial cells HUV-EC-C, and human hepatic differentiated cells, which were derived from liver genitor cells (obtained from Peking University Third Hospital). […] The culture medium for WI-38 was MEM, and the culture medium for HFL-1 and HUV-EC-C was F-12K.

[2] = test system: Raji; assay: In vitro cytotoxic sensitivity of CTB006; assay type: cell-based, human; details: B cell lymphoma
[3] = test system: A549; assay: In vitro cytotoxic sensitivity of CTB006; assay type: cell-based, human; details: A549, Lung cancer
[4] = test system: HT-29; assay: In vitro cytotoxic sensitivity of CTB006; assay type: cell-based, human; details: HT-29, Colorectal cancer
[5] = test system: BT474; assay: In vitro cytotoxic sensitivity of CTB006; assay type: cell-based, human; details: BT474, Breast cancer
[6] = test system: HCC1954; assay: In vitro cytotoxic sensitivity of CTB006; assay type: cell-based, human; details: HCC1954, Breast cancer
[7] = test system: MDA-MB-468; assay: In vitro cytotoxic sensitivity of CTB006; assay type: cell-based, human; details: MDA-MB-468, Breast cancer
[8] = test system: ZR-75-30; assay: In vitro cytotoxic sensitivity of CTB006; assay type: cell-based, human; details: ZR-75-30, Breast cancer
[9] = test system: NUGC3; assay: In vitro cytotoxic sensitivity of CTB006; assay type: cell-based, human; details: NUGC3, Stomach cancer
[10] = test system: 7901; assay: In vitro cytotoxic sensitivity of CTB006; assay type: cell-based, human; details: 7901, Stomach cancer
[11] = test system: ASPC-1; assay: In vitro cytotoxic sensitivity of CTB006; assay type: cell-based, human; details: ASPC-1, Pancreatic cancer
[12] = test system: WiDr; assay: Human colon cancer Widr subcutaneous model (Day 27 after treatment); assay type: in vivo, nude mice
Description: Tumor cells (i.e., MIA-PaCa-2, WiDr, H2122, colo205) were inoculated in nude mice's flank at 5×10^6 cells per mouse. The mice were grouped when the average volume of tumors reached about 100˜200 mm^3. “QW”=weekly dose. “Q3d”=dosed every third day. “BiW”=biweekly.
The bodyweight and major/minor axis of the mice were measured twice a week, and the tumor volumes were calculated using the formula: Tumor volume=1/2×major axis[…]. […] “T” represents average tumor volume of the experimental group (cm^3), and “C” represents average tumor volume of the control group (cm^3). The animals were monitored at all times. The bodyweight and major/minor axis or mice were measured twice a week.
Tumor volumes were represented with average±standard error. […] P<0.05 represents significant difference.

[13] = HuCTB006 0.07 mg/kg i.v. QW × 4W
[14] = HuCTB006 0.07 mg/kg i.v. QW × 4W, 0.07 mg/kg
[15] = HuCTB006 0.07 mg/kg i.v. QW × 4W, listed as HUCTB006, 0.07 mg/kg
[16] = HuCTB006 0.22 mg/kg i.v. QW × 4W
[17] = HuCTB006 0.22 mg/kg i.v. QW × 4W, 0.22 mg/kg
[18] = HuCTB006 0.22 mg/kg i.v. QW × 4W, listed as HUCTB006, 0.22 mg/kg
[19] = HuCTB006 0.67 mg/kg i.v. QW × 4W
[20] = HuCTB006 0.67 mg/kg i.v. QW × 4W, 0.67 mg/kg
[21] = HuCTB006 0.67 mg/kg i.v. QW × 4W, listed as HUCTB006, 0.67 mg/kg
[22] = HuCTB006 2 mg/kg i.v. QW × 4W, 2 mg/kg
[23] = HuCTB006 2 mg/kg i.v. QW × 4W, listed as HUCTB006, 2 mg/kg
[24] = repeated experiment, HuCTB006 0.07 mg/kg
[25] = repeated experiment, HuCTB006 0.22 mg/kg
[26] = repeated experiment, HuCTB006 0.67 mg/kg
[27] = repeated experiment, HuCTB006 2 mg/kg

In the case of “HuCTB006: Monospecific humanized chimeric monoclonal antibody directed to TRAIL-R2 receptor; heavy chain SEQ ID NO: 14, light chain SEQ ID NO: 12”, the “cytotoxicity on human normal tissue cells” value [1] is reported as “no cytotoxicity”, the “In vitro cytotoxic sensitivity of CTB006” value [2] is reported as “Non-responder” and the “In vitro cytotoxic sensitivity of CTB006” value [3] is reported as “Non-responder”. The “In vitro cytotoxic sensitivity of CTB006” value [4] was “Non-responder”, the “In vitro cytotoxic sensitivity of CTB006” value [5] was “Non-responder” and the “In vitro cytotoxic sensitivity of CTB006” value [6] was “Non-responder”. For the same substance, the “In vitro cytotoxic sensitivity of CTB006” value [7] was “Non-responder”, the “In vitro cytotoxic sensitivity of CTB006” value [8] was “Non-responder” and the “In vitro cytotoxic sensitivity of CTB006” value [9] was “Partial-responder”. The “In vitro cytotoxic sensitivity of CTB006” value [10] was “Non-responder”, the “In vitro cytotoxic sensitivity of CTB006” value [11] was “Non-responder” and the “T/C % (Calculated using tumor volume)” value [12, 13] was 90.16%. For the same substance, the “Time of tumor volume changed significantly” value [12, 13] was 7, the “Tumor Volume Mean ± SEM” value [12, 13] was 1.76 ± 0.18 cm^3 and the “Tumor weight Mean ± SEM” value [12, 13] was 1.29 ± 0.18 g. The “TGI (Calculated using tumor volume)” value [12, 14] was 6.61%, the “TGI (Calculated using tumor weight)” value [12, 14] was 11.99% and the “TGI (Calculated using tumor volume)” value [12, 15] was 6.61% ^1. The “TGI (Calculated using tumor weight)” value [12, 15] was 11.99%, the “T/C % (Calculated using tumor volume)” value [12, 16] was 81.49% and the “Time of tumor volume changed significantly” value [12, 16] was 7. The “Tumor Volume Mean ± SEM” value [12, 16] was 1.54 ± 0.18 cm^3, the “Tumor weight Mean ± SEM” value [12, 16] was 1.16 ± 0.13 g and the “TGI (Calculated using tumor volume)” value [12, 17] was 18.71%. The “TGI (Calculated using tumor weight)” value [12, 17] was 21.13%, the “TGI (Calculated using tumor volume)” value [12, 18] was 18.71% ^ac and the “TGI (Calculated using tumor weight)” value [12, 18] was 21.13%. For the same substance, the “T/C % (Calculated using tumor volume)” value [12, 19] was 49.54%, the “Time of tumor volume changed significantly” value [12, 19] was 11 and the “Tumor Volume Mean ± SEM” value [12, 19] was 0.96 ± 0.10 cm^3. The “Tumor weight Mean ± SEM” value [12, 19] was 0.68 ± 0.08 g, the “TGI (Calculated using tumor volume)” value [12, 20] was 49.42% and the “TGI (Calculated using tumor weight)” value [12, 20] was 53.48%. The “TGI (Calculated using tumor volume)” value [12, 21] was 49.42% ^abc, the “TGI (Calculated using tumor weight)” value [12, 21] was 53.48% ^a and the “T/C % (Calculated using tumor volume)” value ([12]; HuCTB006 2 mg/kg i.v. QW × 4W) was 42.17%. For the same substance, the “Time of tumor volume changed significantly” value ([12]; HuCTB006 2 mg/kg i.v. QW × 4W) was 14, the “Tumor Volume Mean ± SEM” value ([12]; HuCTB006 2 mg/kg i.v. QW × 4W) was 0.80 ± 0.11 cm^3 and the “Tumor weight Mean ± SEM” value ([12]; HuCTB006 2 mg/kg i.v. QW × 4W) was 0.53 ± 0.08 g. For the same substance, the “TGI (Calculated using tumor volume)” value [12, 22] was 57.34%, the “TGI (Calculated using tumor weight)” value [12, 22] was 63.81% and the “TGI (Calculated using tumor volume)” value [12, 23] was 57.34% ^abc. For the same substance, the “TGI (Calculated using tumor weight)” value [12, 23] was 63.81% ^a, the “TGI (Calculated using tumor volume)” value [12, 24] was 36.21% and the “TGI (Calculated using tumor weight)” value [12, 24] was 39.94%. For the same substance, the “TGI (Calculated using tumor volume)” value [12, 25] was 54.98%, the “TGI (Calculated using tumor weight)” value [12, 25] was 57.56% and the “TGI (Calculated using tumor volume)” value [12, 26] was 53.73%. The “TGI (Calculated using tumor weight)” value [12, 26] was 49.85%, the “TGI (Calculated using tumor volume)” value [12, 27] was 53.77% and the “TGI (Calculated using tumor weight)” value [12, 27] was 53.75%.
